Test [1] concerns the target T1, LCK (Homo sapiens, UniProt P06239).
T1 construct: 15 μL of LCK KD GST (225-509) for a final volume of 40 μL; GST
Put plainly: LCK-Homogeneous Time Resolved Fluorescent (HTRF) Kinase Assay. The test is classed as biochemical. The procedure: LCK-Homogeneous Time Resolved Fluorescent (HTRF) Kinase Assay
The LCK HTRF assay begins with LCK in the presence of ATP phosphorylating the biotinylated peptide Gastrin. The reaction incubates for 90 min. To quench the assay detection reagents are added which both stop the reaction by diluting out the enzyme and chelating the metals due to the presence of EDTA. Once the detection reagents are added the assay incubates for 30 min to allow for equilibration of the detection reagents.
Buffer conditions are as follows: 50 mM HEPES pH 7.5, 50 mM NaCl, 20 mM MgCl2, 5 mM MnCl2, 2 mM DTT, 0.05% BSA.
The assay is quenched and stopped with 160 μL of a detection reagent. Detection reagents are as follows: Buffer made of 50 mM Tris, pH 7.5, 100 mM NaCl, 3 mM EDTA, 0.05% BSA, 0.1% Tween20.
The assay plate is read in either a Discovery or a RubyStar.
Background: Time-resolved FRET reads energy transfer from a long-lived donor to a nearby acceptor.

Test [2] has as its system C8 cells. The test is described as follows: ACK1 Cell Based Assay (survival under low serum, Cytotox One). To be noted: ACK1-dependent C8 cells, 0.125% FCS, 20 to 24 h; read-out: ACK1 Cell-based IC50. As to the method: ACK1 Cell Based Assay The ACK1 cell based assay is designed to find inhibitors of ACK1 kinase activity which would be prime candidates for the development of anticancer drugs. […] After 20 to 24 h incubation at 37° C. and 5% CO2, cell viability is determined using the Cytotox One kit (Promega) according to the manufacturer's instructions.

The target of test [3] is T2, ACK1 (Homo sapiens, UniProt Q07912).
T2 construct: a fusion of an N-terminal (His)6 Tag with amino acids 117 to 489 of ACK1; (His)6 (N); made in house; host or cells: baculovirus infected Hi-5 insect cells
T2 sequence (Q07912 117-489): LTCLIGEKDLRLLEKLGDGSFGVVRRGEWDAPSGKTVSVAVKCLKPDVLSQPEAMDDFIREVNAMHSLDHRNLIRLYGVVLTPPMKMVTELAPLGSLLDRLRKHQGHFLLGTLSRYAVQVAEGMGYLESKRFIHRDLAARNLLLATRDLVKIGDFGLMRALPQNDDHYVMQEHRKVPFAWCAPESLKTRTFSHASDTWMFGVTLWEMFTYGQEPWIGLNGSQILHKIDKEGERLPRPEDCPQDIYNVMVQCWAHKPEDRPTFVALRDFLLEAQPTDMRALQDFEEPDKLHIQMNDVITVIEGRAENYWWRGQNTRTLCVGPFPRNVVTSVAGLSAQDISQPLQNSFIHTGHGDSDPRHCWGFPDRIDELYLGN
The test is described as follows: ACK1 Enzymatic Assay (PGT/autophosphorylation ELISA). The format is biochemical. As to the method: IC50 values of compounds of the invention may be assessed as follows. The ACK1 kinase assay utilizes a protein expressed in baculovirus infected Hi-5 cells (a fusion of an N-terminal (His)6 Tag with amino acids 117 to 489 of ACK1) purified by affinity chromatography on a Ni-NTA column. The substrate for the reaction is ACK1 itself (autophosphorylation) and poly-Glutamic acid-Tyrosine (PGT (4:1), Sigma catalog #PO275). The PGT is coated to Nunc 96 well plates at 80 μg/mL overnight at 4° C. The morning after coating, the plates are washed twice, and […] reaction buffer (10 mM Hepes, pH 7.6; 20 mM MgCl2; 75 mM NaCl, 0.125% TWEEN20 (polyoxyethylene sorbitan monolaurate); 1 mM DTT) with 5 μM ATP are added to each well. Test compounds are added in […] DMSO, and the reaction is started by addition of […] kinase in assay buffer. The reaction proceeds for 2 h at room temperature. Next, the plates are washed four times, and the level of tyrosine phosphorylation in a given well is quantified by standard ELISA assay utilizing a phosphotyrosine antibody (PY20, Pierce).
(In general: An ELISA detects its analyte on a solid surface through an enzyme-linked reagent.)

Some results are limits rather than exact numbers.

By Ki is commonly meant the dissociation constant of the complex between target and ligand, obtained from inhibition or displacement. Lower therefore signals higher affinity. One may read the IC50 as the concentration needed to halve the response being measured.

T1 sequence (P06239 225-509): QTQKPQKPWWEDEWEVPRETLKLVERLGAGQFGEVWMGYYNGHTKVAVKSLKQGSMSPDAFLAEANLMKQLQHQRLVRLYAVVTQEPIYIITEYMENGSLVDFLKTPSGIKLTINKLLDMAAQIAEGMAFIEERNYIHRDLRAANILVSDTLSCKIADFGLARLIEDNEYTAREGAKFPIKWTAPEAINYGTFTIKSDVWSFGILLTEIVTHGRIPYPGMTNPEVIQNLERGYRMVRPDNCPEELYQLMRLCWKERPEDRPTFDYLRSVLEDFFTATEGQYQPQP

For the compound `OCC(O)CCn1nc(Nc2c(Cl)cccc2Cl)c2cnc(Nc3ccccc3)nc21` (stereo not drawn) [Compound 88, 4-(3-(2,6-dichlorophenylamino)-6-(phenylamino)-1H-pyrazolo[3,4-d]pyrimidin-1-yl)butane-1,2-diol], the Ki in test [1] was less than 0.01 µM; in test [3], 0.01 to 0.1 µM. In test [2], the concentration for half-maximal inhibition (IC50) lay within 0.01 to 0.1 µM.

As for `CN(C)CCCn1nc(Nc2c(Cl)cccc2Cl)c2cnc(Nc3ccccc3)nc21` [Compound 89, N^3-(2,6-Dichlorophenyl)-1-(3-(dimethylamino)propyl)-N^6-phenyl-1H-pyrazolo[3,4-d]pyrimidine-3,6-diamine], the Ki in test [1] and in test [3] was less than 0.01 µM in each case. In test [2], the half-inhibitory concentration (IC50) is 0.01 to 0.1 µM.

On to `Clc1cccc(Cl)c1Nc1nn(CCC2CCNCC2)c2nc(Nc3ccccc3)ncc12` [Compound 94, N^3-(2,6-dichlorophenyl)-N^6-phenyl-1-(2-(piperidin-4-yl)ethyl)-1H-pyrazolo[3,4-d]pyrimidine-3,6-diamine], for which the Ki is less than 0.01 µM in test [1] and 0.01 to 0.1 µM in test [3]. Besides, the IC50 in test [2] was greater than 0.1 µM.

For the compound “(R)—N^3-(2,6-Dimethylphenyl)-1-(3-(2-(methoxymethyl)pyrrolidin-1-yl)propyl)-1H-indazole-3,6-diamine [Compound 68]”, the inhibitory constant (Ki) in test [1] was 0.01 to 0.1 µM; in test [3], greater than 0.1 µM. Further, in test [2], the IC50 was greater than 0.1 µM.

As for “(R)—N^3-(2,6-Dimethylphenyl)-1-(3-(2-(methoxymethyl)pyrrolidin-1-yl)propyl)-N^6-phenyl-1H-indazole-3,6-diamine [Compound 66]”, the Ki in test [1] was less than 0.01 µM; in test [3], greater than 0.1 µM. In test [2], the IC50 is greater than 0.1 µM.

As to “(R)—N^3-(2,6-Dimethylphenyl)-N^6-(4-fluorophenyl)-1-(3-(2-(methoxymethyl)pyrrolidin-1-yl)propyl)-1H-indazole-3,6-diamine [Compound 65]”, the inhibitory constant (Ki) in test [1] is less than 0.01 µM; in test [3], greater than 0.1 µM. Further, the IC50 in test [2] is greater than 0.1 µM.

For “Ethyl-2-(3-(2,6-dimethylphenylamino)-6-(phenylamino)-1H-indazole-1-yl)acetate [Compound 64]”, the inhibition constant (Ki) in test [1] was less than 0.01 µM; in test [3], 0.01 to 0.1 µM. Moreover, the 50% inhibitory concentration (IC50) in test [2] was greater than 0.1 µM.

Take “N^3-(2,6-Dimethylphenyl)-1-(3-methoxy-3-methylbutyl)-1H-indazole-3,6-diamine [Compound 58]”: the inhibition constant Ki in test [1] was less than 0.01 µM; in test [3], greater than 0.1 µM. In test [2], the half-inhibitory concentration (IC50) was greater than 0.1 µM.

In the case of “N^3-(2,6-Dimethylphenyl)-N^6-phenyl-1-((tetrahydro-2H-pyran-4-yl)methyl)-1H-indazole-3,6-diamine [Compound 63]”, the inhibitory constant (Ki) was less than 0.01 µM in test [1] and 0.01 to 0.1 µM in test [3]. In addition, the half-inhibitory concentration (IC50) in test [2] is greater than 0.1 µM.

Turning to “N^3-(2,6-dichlorophenyl)-1-(3-methoxy-3-methylbutyl)-N^6-[4-(4-methyl-piperazin-1-yl)-phenyl]-1H-indazole-3,6-diamine [Compound 80]”, the Ki in test [1] and in test [3] was less than 0.01 µM throughout. Further, the half-maximal inhibitory concentration (IC50) in test [2] was 0.01 to 0.1 µM.

For the compound “N^3-(2,6-dimethylphenyl)-1-(2-(4-methylpiperazin-1-yl)ethyl)-N^6-phenyl-1H-indazole-3,6-diamine [Compound 72]”, the Ki was less than 0.01 µM in test [1] and 0.01 to 0.1 µM in test [3]. In addition, the half-maximal inhibitory concentration (IC50) in test [2] is greater than 0.1 µM.

Values taken from US7763624B2, “Substituted pyrazolo[3,4-d]pyrimidines as ACK-1 and LCK inhibitors” (Amgen Inc., priority 2005, dated 2010).
